Molecules are shown by their SMILES.

The subject of one experiment is SARS-CoV-2 strain USA-WA1/2020. Kind of experiment: microbe, parasite or virus in culture. It is filed as cell-based. Conditions: Severe acute respiratory syndrome coronavirus 2, HeLa-ACE2, 24 h, HeLa-ACE2 cells, SARS-CoV-2 infection, 24 h; given as bound; read-out: EC50, uM (Hela).
As for `C[C@@]12C[C@@H](C(=O)N[C@@H](C[C@@H]3CCNC3=O)C(=O)COC(F)(F)F)N(C(=O)C(=O)Nc3ccccc3F)[C@@H]1C2` [Compound 581, (1R, 3S, 5R)-2-(2-((2-fluorophenyl)amino)-2-oxoacetyl)-5-methyl-N-((S)-3-oxo-1-((S)-2-oxopyrrolidin-3-yl)-4-(trifluoromethoxy)butan-2-yl)-2-azabicyclo-[3.1.0]hexane-3-carboxamide], the EC50 was over 1 µM.

Still in this experiment, the particulars now being: Severe acute respiratory syndrome coronavirus 2, HeLa-ACE2, 24 h, HeLa-ACE2 cells, SARS-CoV-2 infection, 24 h; read-out: EC50, uM (Hela).
Take `CC(C)C[C@H](NC(=O)c1ncon1)C(=O)N[C@@H](C[C@@H]1CCNC1=O)C(=O)COC(F)(F)F` [Compound 580, N-((S)-4-methyl-1-oxo-1-(((S)-3-oxo-1-((S)-2-oxopyrrolidin-3-yl)-4-(trifluoromethoxy)butan-2-yl)amino)pentan-2-yl)-1,2,4-oxadiazole-3-carboxamide]: the EC50 lay in the range of 0.2 to 0.5 µM.

For the molecule `CC1(C[C@H](NC(=O)C(=O)NC23CC(F)(C2)C3)C(=O)N[C@@H](C[C@@H]2CCNC2=O)C(=O)COC(F)(F)F)CC1` [Compound 582, N1-(3-fluorobicyclo-[1.1.1]pentan-1-yl)-N2-((S)-3-(l-methyl-cyclopropyl)-1-oxo-1-(((S)-3-oxo-1-((S)-2-oxopyrrolidin-3-yl)-4-(trifluoromethoxy)butan-2-yl)amino)propan-2-yl)oxalamide], the concentration for a half-maximal effect (EC50) was under 0.05 µM.

In the case of `O=C(Nc1ccccc1F)C(=O)N1CC[C@H]1C(=O)N[C@@H](C[C@@H]1CCNC1=O)C(=O)COC(F)(F)F` [Compound 583, (S)-1-(2-((2-fluoro-phenyl)amino)-2-oxoacetyl)-N-((S)-3-oxo-1-((S)-2-oxopyrrolidin-3-yl)-4-(trifluoromethoxy)butan-2-yl)azetidine-2-carboxamide], the EC50 lay in the range of 0.05 to 0.2 µM.

For `O=C(Nc1ccccc1F)C(=O)N1CCCCC[C@H]1C(=O)N[C@@H](C[C@@H]1CCNC1=O)C(=O)COC(F)(F)F` [Compound 584, (S)-1-(2-((2-fluorophenyl)amino)-2-oxoacetyl)-N-((S) -3-oxo-1-((S)-2-oxopyrrolidin-3-yl)-4-(trifluoromethoxy)butan-2-yl)azepane-2-carboxamide], the EC50 is under 0.05 µM.

`CC1(NC(=O)C(=O)N[C@@H](CC2CC2)C(=O)N[C@@H](C[C@@H]2CCNC2=O)C(=O)COC(F)(F)F)CC1` [Compound 585, N1-((S)-3-cyclopropyl-1-oxo-1-(((S)-3-oxo-1-((S)-2-oxopyrrolidin-3-yl)-4-(trifluoromethoxy)butan-2-yl)amino)propan-2-yl)-N2-(1-methylcyclo-propyl)oxalamide]: the EC50 was under 0.05 µM.

On to `O=C(NC1CC1)C(=O)N[C@@H](CC1CC1)C(=O)N[C@@H](C[C@@H]1CCNC1=O)C(=O)COC(F)(F)F` [Compound 586, N1-cyclopropyl-N2-((S)-3-cyclopropyl-1-oxo-1-(((S)-3-oxo-1-((S)-2-oxopyrrolidin-3-yl)-4-(trifluoromethoxy)butan-2-yl)amino)propan-2-yl)oxalamide], for which the EC50 was under 0.05 µM.

For `O=C(NC1CC(F)(F)C1)C(=O)N1CC2(CC2)C[C@H]1C(=O)N[C@@H](C[C@@H]1CCNC1=O)C(=O)COC(F)(F)F` [Compound 588, (S)-5-(2-((3,3-difluorocyclobutyl)-amino)-2-oxoacetyl)-N-((S)-3-oxo-1-((S)-2-oxopyrrolidin-3-yl)-4-(trifluoromethoxy)butan-2-yl)-5-azaspiro[2.4]-heptane-6-carboxamide], the EC50 was 0.2 to 0.5 µM.

On to `O=C(Nc1ccccc1F)C(=O)N[C@@H](Cc1ccc(F)c(F)c1)C(=O)N[C@@H](C[C@@H]1CCNC1=O)C(=O)COC(F)(F)F` [Compound 589, N1-((S)-3-(3,4-difluorophenyl)-1-oxo-1-(((S)-3-oxo-1-((S)-2-oxopyrrolidin-3-yl)-4-(trifluoromethoxy)butan-2-yl)amino)propan-2-yl)-N2-(2-fluorophenyl)oxalamide], for which the EC50 fell in the range of 0.05 to 0.2 µM.

As to `CC(C)(NC(=O)C(=O)N1CC2(CC2)C[C@H]1C(=O)N[C@@H](C[C@@H]1CCNC1=O)C(=O)COC(F)(F)F)C(F)(F)F` [Compound 590, (S)-N-((S)-3-oxo-1-((S)-2-oxopyrrolidin-3-yl)-4-(trifluoromethoxy)butan-2-yl)-5-(2-oxo-2-((1,1,1-trifluoro-2-methylpropan-2-yl)amino)acetyl)-5-azaspiro[2.4]heptane-6-carboxamide], the EC50 is 0.05 to 0.2 µM.

Regarding `O=C(Nc1ccc(Cl)cc1F)C(=O)N1CC2(CC2)C[C@H]1C(=O)N[C@@H](C[C@@H]1CCNC1=O)C(=O)COC(F)(F)F` [Compound 591, (S)-5-(2-((4-chloro-2-fluorophenyl)amino)-2-oxoacetyl)-N-((S)-3-oxo-1-((S)-2-oxopyrrolidin-3-yl)-4-(trifluoromethoxy)butan-2-yl)-5-azaspiro[2.4]-heptane-6-carboxamide], the EC50 was under 0.05 µM.

`CC(C)CC(C(=O)N[C@@H](C[C@@H]1CCNC1=O)C(=O)COC(F)(F)F)n1cc(C(=O)NC(C)(C)C)nn1` (stereo partly drawn) [Compound 592, N-(tert-butyl)-1-(4-methyl-1-oxo-1-(((S)-3-oxo-1-((S)-2-oxopyrrolidin-3-yl)-4-(trifluoromethoxy)butan-2-yl)amino)pentan-2-yl)-1H-1,2,3-triazole-4-carboxamide]: the concentration giving a half-maximal response (EC50) lay within 0.05 to 0.2 µM.

With `O=C1NCC[C@H]1C[C@H](NC(=O)[C@@H]1CC2(CC2)CN1C(=O)c1ncccc1F)C(=O)COC(F)(F)F` [Compound 593, (S)-5-(3-fluoropicolinoyl)-N-((S)-3-oxo-1-((S)-2-oxopyrrolidin-3-yl)-4-(trifluoromethoxy)butan-2-yl)-5-azaspiro[2.4]-heptane-6-carboxamide], the EC50 was in the range of 0.2 to 0.5 µM.

Regarding `CC1(C)[C@@H]2[C@@H](C(=O)N[C@@H](C[C@@H]3CCNC3=O)C(=O)COC(F)(F)F)N(C(=O)c3cc(F)cc(F)c3O)C[C@@H]21` [Compound 594, (1R,2S,5S)-3-(3,5-difluoro-2-hydroxybenzoyl)-6,6-dimethyl-N-((S)-3-oxo-1-((S)-2-oxopyrrolidin-3-yl)-4-(trifluoromethoxy)butan-2-yl)-3-azabicyclo-[3.1.0]hexane-2-carboxamide], the EC50 is 0.05 to 0.2 µM.

For `O=C1NCC[C@H]1C[C@H](NC(=O)[C@@H]1CC2(CC2)CN1C(=O)[C@H](CO)c1ccccc1)C(=O)COC(F)(F)F` [Compound 595, (S)-5-((S)-3-hydroxy-2-phenylpropanoyl)-N-((S)-3-oxo-1-((S)-2-oxopyrrolidin-3-yl)-4-(trifluoromethoxy)butan-2-yl)-5-azaspiro[2.4]-heptane-6-carboxamide], the EC50 was 0.05 to 0.2 µM.

Turning to `CC(C)C[C@H](NC(=O)C(=O)NC12CC(C(F)(F)F)(C1)C2)C(=O)N[C@@H](C[C@@H]1CCNC1=O)C(=O)COC(F)(F)F` [Compound 596, N1-((S)-4-methyl-1-oxo-1-(((S)-3-oxo-1-((S)-2-oxopyrrolidin-3-yl)-4-(trifluoromethoxy)butan-2-yl)amino)pentan-2-yl)-N2-(3-(trifluoromethyl)bi-cyclo[1.1.1]pentan-1-yl)oxalamide], the EC50 is under 0.05 µM.

With `O=C(Nc1cccc(F)c1F)C(=O)N1CC2(CC2)C[C@H]1C(=O)N[C@@H](C[C@@H]1CCNC1=O)C(=O)COC(F)(F)F` [Compound 598, (S)-5-(2-((2,3-difluorophenyl)amino)-2-oxoacetyl)-N-((S)-3-oxo-1-((S)-2-oxopyrrolidin-3-yl)-4-(trifluoromethoxy)butan-2-yl)-5-azaspiro[2.4]heptane-6-carboxamide], the EC50 is under 0.05 µM.

Consider `COc1cccc(NC(=O)C(=O)N2CC3(CC3)C[C@H]2C(=O)N[C@@H](C[C@@H]2CCNC2=O)C(=O)COC(F)(F)F)c1F` [Compound 599, (S)-5-(2-((2-fluoro-3-methoxyphenyl)amino)-2-oxoacetyl)-N-((S)-3-oxo-1-((S)-2-oxopyrrolidin-3-yl)-4-(trifluoromethoxy)butan-2-yl)-5-azaspiro[2.4]heptane-6-carboxamide], for which the EC50 was under 0.05 µM.

Turning to `O=C(Nc1cccc(OC(F)(F)F)c1F)C(=O)N1CC2(CC2)C[C@H]1C(=O)N[C@@H](C[C@@H]1CCNC1=O)C(=O)COC(F)(F)F` [Compound 600, (S)-5-(2-((2-fluoro-3-(trifluoromethoxy)-phenyl)amino)-2-oxoacetyl)-N-((S)-3-oxo-1-((S)-2-oxopyrrolidin-3-yl)-4-(trifluoromethoxy)-butan-2-yl)-5-azaspiro[2.4]heptane-6-carboxamide], the EC50 is under 0.05 µM.

Take `CC(C)(C)NC(=O)C(=O)N1C[C@@H]2C(F)CC[C@@H]2[C@H]1C(=O)N[C@@H](C[C@@H]1CCNC1=O)C(=O)COC(F)(F)F` (stereo partly drawn) [Compound 601, (1S,3aR,6aS)-2-(2-(tert-butylamino)-2-oxoacetyl)-4-fluoro-N-((S)-3-oxo-1-((S)-2-oxopyrrolidin-3-yl)-4-(trifluoromethoxy)butan-2-yl)octahydrocyclo-penta[c]pyrrole-1-carboxamide]: the EC50 lay within 0.05 to 0.2 µM.

With `O=C(Nc1cc(F)ccc1F)C(=O)N1CC2(CC2)C[C@H]1C(=O)N[C@@H](C[C@@H]1CCNC1=O)C(=O)COC(F)(F)F` [Compound 602, (S)-5-(2-((2,5-difluorophenyl)amino)-2-oxoacetyl)-N-((S)-3-oxo-1-((S)-2-oxopyrrolidin-3-yl)-4-(trifluoromethoxy)butan-2-yl)-5-azaspiro[2.4]heptane-6-carboxamide], the EC50 is under 0.05 µM.

As for `O=C(Nc1c(F)cccc1Cl)C(=O)N1CC2(CC2)C[C@H]1C(=O)N[C@@H](C[C@@H]1CCNC1=O)C(=O)COC(F)(F)F` [Compound 603, (S)-5-(2-((2-chloro-6-fluorophenyl)amino)-2-oxoacetyl)-N-((S)-3-oxo-1-((S)-2-oxo-pyrrolidin-3-yl)-4-(trifluoromethoxy)-butan-2-yl)-5-azaspiro[2.4]heptane-6-carboxamide], the EC50 fell in the range of 0.05 to 0.2 µM.

For the molecule `O=C1NCC[C@H]1C[C@@H](NC(=O)[C@@H]1[C@H]2CCC[C@H]2CN1C(=O)c1cc2cc(F)ccc2[nH]1)C(=O)COC(F)(F)F` [Compound 604, (1S,3aR,6aS)-2-(5-fluoro-1H-indole-2-carbonyl)-N-((R)-3-oxo-1-((S)-2-oxopyrrolidin-3-yl)-4-(trifluoromethoxy)butan-2-yl)octahydrocyclopenta[c]pyrrole-1-carboxamide], the EC50 is under 0.05 µM.
